The NIST ThermoML archive (doi:10.1016/j.fluid.2010.02.029)
± gives the expanded uncertainty stated by the source.

What was measured:
[1] = 101.33 kPa, Crystal, radial heat flow
[2] = xn = mol fraction of the nth substance listed; conditions: 101 kPa, radial heat flow

Q: What does the source list for `[Bi]` [bismuth]?
A: thermal conductivity ([1]; 382.65 K): 8.35 ± 1.2 W/m/K; thermal conductivity ([1]; 418.7 K): 8.12 ± 1.1 W/m/K

Q: Which thermal conductivity ([2]; 418.7 K, Crystal, x2 = 0.5504) does the source give for `[Cd]` [cadmium] + [Bi] here?
A: Its thermal conductivity is 12.46 ± 1.7 W/m/K.

Q: What about the thermal conductivity ([2]; 418.7 K, Liquid, x2 = 0.5504) of the same compound?
A: Its thermal conductivity is 10.06 ± 1.4 W/m/K.

Q: Which results are given for `[In]` [indium] + [Bi]?
A: thermal conductivity ([2]; 382.65 K, Crystal, x2 = 0.527): 13.25 ± 1.9 W/m/K; thermal conductivity ([2]; 382.65 K, Liquid, x2 = 0.527): 10.6 ± 1.5 W/m/K
